According to US20170052170A1, “NOVEL CELL LINES AND METHODS” (priority 2009, published 2017):

Key:
[1] = biological target: T1, umami taste receptor (T1R1/T1R3) (Homo sapiens, UniProt Q7RTX0+Q7RTX1, C757R); experiment: Umami cell-based calcium flux assay, HEK293T cells expressing T1R1, T1R3 and mouse Gα15; settings: FIG. 6; high density, coated plates, low glucose media, serum deprivation
T1 construct: expressed in transfected cells; host or cells: HEK293T (ATCC CRL-11268)
T1 sequence (Q7RTX1 21-841): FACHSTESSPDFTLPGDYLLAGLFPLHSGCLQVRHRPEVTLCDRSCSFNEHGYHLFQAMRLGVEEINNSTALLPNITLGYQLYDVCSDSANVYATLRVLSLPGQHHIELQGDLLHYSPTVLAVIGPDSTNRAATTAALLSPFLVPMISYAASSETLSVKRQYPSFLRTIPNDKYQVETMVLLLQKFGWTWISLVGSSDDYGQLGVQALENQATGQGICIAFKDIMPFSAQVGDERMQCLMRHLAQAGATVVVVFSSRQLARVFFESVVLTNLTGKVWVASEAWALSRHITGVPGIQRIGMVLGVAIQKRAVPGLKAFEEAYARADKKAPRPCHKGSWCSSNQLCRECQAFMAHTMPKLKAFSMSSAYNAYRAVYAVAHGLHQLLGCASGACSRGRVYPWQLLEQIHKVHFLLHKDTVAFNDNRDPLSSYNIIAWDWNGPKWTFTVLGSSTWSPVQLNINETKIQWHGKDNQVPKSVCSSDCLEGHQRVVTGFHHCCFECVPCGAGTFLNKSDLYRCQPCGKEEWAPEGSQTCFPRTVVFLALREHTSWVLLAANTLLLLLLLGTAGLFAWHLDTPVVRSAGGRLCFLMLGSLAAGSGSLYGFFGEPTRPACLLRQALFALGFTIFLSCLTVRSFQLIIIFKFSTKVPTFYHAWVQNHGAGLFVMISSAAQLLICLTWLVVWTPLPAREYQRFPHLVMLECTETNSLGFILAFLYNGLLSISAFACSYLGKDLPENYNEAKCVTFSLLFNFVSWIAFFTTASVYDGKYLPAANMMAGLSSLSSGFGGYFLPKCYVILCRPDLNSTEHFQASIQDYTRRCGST
T1 sequence (Q7RTX0 21-852 C757R): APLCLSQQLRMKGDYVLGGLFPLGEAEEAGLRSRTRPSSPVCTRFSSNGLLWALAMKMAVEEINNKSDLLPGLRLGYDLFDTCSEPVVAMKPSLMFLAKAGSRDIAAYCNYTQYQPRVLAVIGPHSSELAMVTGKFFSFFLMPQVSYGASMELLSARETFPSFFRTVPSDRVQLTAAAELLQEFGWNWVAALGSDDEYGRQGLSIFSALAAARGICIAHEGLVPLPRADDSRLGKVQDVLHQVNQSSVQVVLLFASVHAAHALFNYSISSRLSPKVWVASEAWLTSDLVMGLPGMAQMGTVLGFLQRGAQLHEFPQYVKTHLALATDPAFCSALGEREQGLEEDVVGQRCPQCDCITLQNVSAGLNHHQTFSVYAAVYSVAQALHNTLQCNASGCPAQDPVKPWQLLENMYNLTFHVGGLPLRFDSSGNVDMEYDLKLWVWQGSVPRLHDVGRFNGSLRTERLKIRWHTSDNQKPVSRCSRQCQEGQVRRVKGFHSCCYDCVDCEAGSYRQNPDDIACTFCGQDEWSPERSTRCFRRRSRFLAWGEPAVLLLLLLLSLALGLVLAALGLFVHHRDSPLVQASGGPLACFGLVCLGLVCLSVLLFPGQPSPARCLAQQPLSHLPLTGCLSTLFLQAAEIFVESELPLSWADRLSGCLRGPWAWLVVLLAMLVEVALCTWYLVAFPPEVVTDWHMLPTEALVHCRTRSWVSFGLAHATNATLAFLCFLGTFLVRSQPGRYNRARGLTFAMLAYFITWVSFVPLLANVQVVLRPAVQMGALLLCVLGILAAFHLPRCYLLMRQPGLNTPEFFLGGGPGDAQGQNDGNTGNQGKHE

[2] = biological target: T2, sweet taste receptor (T1R2/T1R3) (Homo sapiens, UniProt Q7RTX0+Q8TE23, C757R/I191V/I486V/R317G); experiment: Sweet cell-based calcium flux assay, HEK293T cells expressing T1R2, T1R3 and mouse Gα15
T2 construct: expressed in transfected cells; host or cells: HEK293T (ATCC CRL-11268)
T2 sequence (Q8TE23 20-839 I191V/R317G/I486V): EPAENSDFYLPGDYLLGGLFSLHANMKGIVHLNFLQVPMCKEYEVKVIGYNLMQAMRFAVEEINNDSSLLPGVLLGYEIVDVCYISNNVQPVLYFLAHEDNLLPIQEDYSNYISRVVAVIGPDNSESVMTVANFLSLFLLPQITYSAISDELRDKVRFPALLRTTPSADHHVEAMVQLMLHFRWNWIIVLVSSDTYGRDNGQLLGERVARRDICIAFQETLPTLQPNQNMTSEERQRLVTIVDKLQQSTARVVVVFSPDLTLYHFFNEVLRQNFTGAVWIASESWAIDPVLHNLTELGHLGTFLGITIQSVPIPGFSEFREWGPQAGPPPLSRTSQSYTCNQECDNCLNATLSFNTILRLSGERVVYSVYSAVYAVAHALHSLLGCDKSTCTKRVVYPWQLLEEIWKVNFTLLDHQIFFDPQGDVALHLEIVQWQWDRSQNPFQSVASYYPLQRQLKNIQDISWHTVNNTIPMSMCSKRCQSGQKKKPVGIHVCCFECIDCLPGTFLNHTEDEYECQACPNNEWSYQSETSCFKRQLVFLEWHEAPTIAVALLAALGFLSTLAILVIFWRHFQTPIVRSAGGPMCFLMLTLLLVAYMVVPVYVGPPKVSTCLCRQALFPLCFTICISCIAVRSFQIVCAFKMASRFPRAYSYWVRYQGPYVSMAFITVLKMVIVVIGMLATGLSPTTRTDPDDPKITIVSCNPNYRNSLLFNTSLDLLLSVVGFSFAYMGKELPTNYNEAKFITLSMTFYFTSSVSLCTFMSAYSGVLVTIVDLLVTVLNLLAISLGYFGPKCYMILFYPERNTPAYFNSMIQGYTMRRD
T2 sequence (Q7RTX0 21-852 C757R): T1 sequence (Q7RTX0 21-852 C757R)
From the text: Plates are then loaded on a high throughput plate reader (Hamamatsu FDSS). […] Calcium flux is detected for 90 seconds.

## O=C(CO)[C@@H](O)[C@H](O)[C@H](O)CO [fructose]
[1]
  response of cells grown in the "Final" growth conditions: not
[2]
  EC50: < 4.3 mM
[2]; FIG. 20, high density, coated plates, low glucose media, serum deprivation
  response of cells grown in the "Final" growth conditions: respond robustly
